This note sets out measurements from US8389698B2, “Tanaproget derivatives, metabolites, and uses thereof” (Wyeth LLC, priority 2004, dated 2013).

Data set [1] relates to alkaline phosphatase activity in T47D cells. Briefly: Alkaline phosphatase activity in T47D cells. The format is cell-based. The protocol:
Tanaproget glucuronides are a prodrug of tanaproget, a first-in-class non-steroidal progesterone receptor agonist for use primarily in contraception. The effect of tanaproget glucuronides on alkaline phosphase activity in T47D cells is analyzed as follows.
Culture medium: DMEM:F12 (1:1) (GIBCO, BRL) supplemented with 5% (v/v) charcoal stripped fetal bovine serum (not heat-inactivated), 100 U/mL penicillin, 100 μg/mL streptomycin, and 2 mM GlutaMax (GIBCO, BRL).
Alkaline phosphatase assay buffer: I. 0.1M Tris-HCl, pH 9.8, containing 0.2% Triton X-100, 0.1M Tris-HCl, pH 9.8, containing 4 mM p-nitrophenyl phosphate (Sigma).
Frozen T47D cells are thawed in a 37° C. water bath and diluted to 280,000 cells/mL in culture medium. To each well in a 96-well plate (Falcon, Becton Dickinson Labware), 180 μl of diluted cell suspension is added.
Twenty μl of reference or test compounds diluted in the culture medium is then added to each well. The cells are incubated at 37° C. in a 5% CO2 humidified atmosphere for 24 hours. For high throughput screening, one concentration of each compound will be tested at 0.3 μg/mL. […]
For reference and test compounds, a dose response curve is generated for dose vs. the rate of enzyme reaction (slope). […] EC50 values are calculated from the retransformed values. […]

Data set [2] has as its system Glusulase (glucuronidase). Briefly: Enzymatic hydrolysis of tanaproget glucuronide conjugate in pooled urine by Glusulase. The format is in vitro ADME. The protocol: In order to confirm that that the tanaproget glucuronide derivative is a prodrug when delivered to patients, the ability of the glucuronide conjugate to be enzymatically cleaved by a glucuronidase which is native to the gastrointestinal tract in humans was used in the following assay.
Pooled urine samples (4-8 hr) from healthy women were hydrolyzed by Glusulase®. Aliquots (1 mL) of pooled urine were adjusted to pH 5 with 0.5 mL of 0.6 M sodium acetate buffer. The diluted urine was mixed with Glusulase® (9,000 units/mL, 100 μL) and incubated at 37° C. for 1 hr with gentle shaking. The reaction was stopped by the addition of 2 mL of acetone and the precipitate was removed by centrifugation. The supernatant was dried under nitrogen in a TurboVap™ (Caliper Life Sciences, Hopkinton, Mass.).

The nature of data set [3]: Metabolite identification in liver microsomes. Particulars: male and female rat, dog, and human liver microsomes. The format is in vitro ADME. Here is the method:
(§1) The glucuronide of tanaproget was prepared in male rat liver microsomes, and the structure was identified as a S-glucuronide conjugate by liquid chromatography (LC)/mass spectrometry (MS) and nuclear magnetic resonance (NMR) spectroscopy. […] This S-glucuronide can also be synthetically prepared simultaneously with a N-glucuronide. The two synthetic glucuronides could be separated by HPLC and their structures were all characterized by LC/MS and NMR spectroscopy. In the following scheme, the NSP-989 terminology is used in the place of tanaproget.
Incubations (100 mL) were performed with tanaproget (40 μM), UDPGA (5 mM), magnesium chloride (10 mM), and male rat liver microsomes (1.5 mg/mL), in 0.1 M potassium phosphate buffer, pH 7.4 at 37° C. The samples were pre-incubated for 1 minute at 37° C., and the reactions were initiated by the addition of UDPGA. The sample was cooled using an ice bath to stop the reaction after 3 hours. Unreacted tanaproget was removed from the samples by two extractions with diethyl ether (200 mL×2).

A short description of data set [4]: Drug related components in plasma. The format is in vivo. Particulars: rat, dog, and human plasma. Here is the method: as §1

`Cn1c(C#N)ccc1-c1ccc2c(c1)C(C)(C)OC(SC1OC(C(=O)O)C(O)C(O)C1O)=N2` [Tanaproget S-glucuronide, S-(β)-D-glucuronide of tanaproget] gave an EC50 in data set [1] (Homo sapiens, 24 hours treatment) of 0.1 nM. In data set [1] (alkaline phosphatase, relative to progesterone), the “efficacy as compared to progesterone” value amounted to 60%. For the same molecule, the “conversion of glucuronide into tanaproget by Glusulase” value in data set [2] (pooled urine (4-8 hr) from healthy women, pH 5, Glusulase 9,000 units/mL, 37° C., 1 hr, HPLC and LC/MS) was “confirmed the conversion of glucuronide into parent drug tanaproget”. Moreover, the “conversion of glucuronide into tanaproget in control incubations” value in data set [2] (same conditions without Glusulase, or with Glusulase and 10 mM saccharolactone (β-glucuronidase inhibitor)) is “no conversion of glucuronide conjugate into tanaproget was observed”. Also, the “abundance as metabolite of tanaproget in liver microsomes” value in data set [3] is “major metabolite”. The “abundance as drug related component in plasma” value in data set [4] is recorded as “major drug related component”.
